This note sets out measurements from patent publication US9550772B2, “Azaindole derivatives as multi kinase inhibitors” (ORIBASE PHARMA, priority 2012, dated 2017).

For one experiment, the target named is T1, FGFR2 (Homo sapiens, UniProt P21802).
T1 construct: purchased Invitrogen
Put plainly: In vitro kinase assay (Z'-LYTE, Invitrogen). It counts as biochemical. The settings on record: compound at 100 nM, ATP Km apparent, read-out: % of inhibition of the kinase compared to the control. In outline:
(§1)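 Z′-LYTE, coupled-enzyme FRET format; single dose 100 nM cpd, 1% DMSO. Buffer: 50 mM HEPES pH 7.5, 10 mM MgCl2, 1 mM EGTA, 0.01% BRIJ-35. ATP = apparent Km. Readout: donor/acceptor emission ratio, ex 400 nm → % inhibition.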

Another experiment has as its target T2, SRC (Homo sapiens, UniProt P12931).
T2 construct: purchased Invitrogen
Put plainly: In vitro kinase assay (Z'-LYTE, Invitrogen). It counts as biochemical. The settings on record: compound at 100 nM, ATP Km apparent, read-out: % of inhibition of the kinase compared to the control. An outline of the steps: as §1

The target of another experiment is T3, PDGFRA (PDGFR alpha) (Homo sapiens, UniProt P16234).
T3 construct: purchased Invitrogen
T3 sequence (P16234 24-1089): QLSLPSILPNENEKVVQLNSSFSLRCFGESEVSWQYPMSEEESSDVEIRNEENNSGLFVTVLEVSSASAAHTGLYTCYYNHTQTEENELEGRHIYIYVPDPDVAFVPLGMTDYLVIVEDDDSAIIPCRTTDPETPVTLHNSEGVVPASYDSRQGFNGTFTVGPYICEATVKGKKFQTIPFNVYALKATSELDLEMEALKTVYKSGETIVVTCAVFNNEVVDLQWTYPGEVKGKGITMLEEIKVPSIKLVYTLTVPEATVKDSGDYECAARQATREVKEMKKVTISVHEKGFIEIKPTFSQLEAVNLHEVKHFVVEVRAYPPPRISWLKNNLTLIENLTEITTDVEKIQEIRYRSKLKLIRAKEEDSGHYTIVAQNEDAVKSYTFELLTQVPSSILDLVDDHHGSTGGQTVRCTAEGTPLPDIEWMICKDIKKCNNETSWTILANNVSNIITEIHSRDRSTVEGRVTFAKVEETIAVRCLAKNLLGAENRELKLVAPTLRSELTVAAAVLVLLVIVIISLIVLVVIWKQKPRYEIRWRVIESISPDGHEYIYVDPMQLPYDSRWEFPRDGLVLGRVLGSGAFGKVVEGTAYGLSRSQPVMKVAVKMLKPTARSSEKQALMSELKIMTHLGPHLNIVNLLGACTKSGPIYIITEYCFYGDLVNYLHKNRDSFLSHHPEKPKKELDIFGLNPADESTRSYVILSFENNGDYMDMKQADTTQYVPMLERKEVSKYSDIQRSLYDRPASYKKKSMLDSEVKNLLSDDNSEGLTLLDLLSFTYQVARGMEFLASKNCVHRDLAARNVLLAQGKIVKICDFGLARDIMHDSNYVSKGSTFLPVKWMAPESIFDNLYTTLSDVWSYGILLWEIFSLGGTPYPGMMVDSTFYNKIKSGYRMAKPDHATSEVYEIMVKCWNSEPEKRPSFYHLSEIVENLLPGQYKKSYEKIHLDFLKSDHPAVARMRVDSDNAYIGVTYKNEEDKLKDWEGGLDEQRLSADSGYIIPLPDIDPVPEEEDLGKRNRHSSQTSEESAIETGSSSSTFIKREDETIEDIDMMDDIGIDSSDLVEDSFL
Put plainly: In vitro kinase assay (Z'-LYTE, Invitrogen). It counts as biochemical. The settings on record: compound at 100 nM, ATP Km apparent, read-out: % of inhibition of the kinase compared to the control. In outline: as §1

The next experiment concerns the target T4, EGFR (ErbB1) T790M L858R (Homo sapiens, UniProt P00533, L858R/T790M).
T4 construct: purchased Invitrogen
The experiment is described as follows: In vitro kinase assay (Z'-LYTE, Invitrogen). The class given is biochemical. To be noted: compound at 100 nM, ATP Km apparent, read-out: % of inhibition of the kinase compared to the control. An outline of the steps:
as §1

A further experiment deals with T5, BRAF (Homo sapiens, UniProt P15056).
T5 construct: purchased Invitrogen
T5 sequence (P15056 whole entry): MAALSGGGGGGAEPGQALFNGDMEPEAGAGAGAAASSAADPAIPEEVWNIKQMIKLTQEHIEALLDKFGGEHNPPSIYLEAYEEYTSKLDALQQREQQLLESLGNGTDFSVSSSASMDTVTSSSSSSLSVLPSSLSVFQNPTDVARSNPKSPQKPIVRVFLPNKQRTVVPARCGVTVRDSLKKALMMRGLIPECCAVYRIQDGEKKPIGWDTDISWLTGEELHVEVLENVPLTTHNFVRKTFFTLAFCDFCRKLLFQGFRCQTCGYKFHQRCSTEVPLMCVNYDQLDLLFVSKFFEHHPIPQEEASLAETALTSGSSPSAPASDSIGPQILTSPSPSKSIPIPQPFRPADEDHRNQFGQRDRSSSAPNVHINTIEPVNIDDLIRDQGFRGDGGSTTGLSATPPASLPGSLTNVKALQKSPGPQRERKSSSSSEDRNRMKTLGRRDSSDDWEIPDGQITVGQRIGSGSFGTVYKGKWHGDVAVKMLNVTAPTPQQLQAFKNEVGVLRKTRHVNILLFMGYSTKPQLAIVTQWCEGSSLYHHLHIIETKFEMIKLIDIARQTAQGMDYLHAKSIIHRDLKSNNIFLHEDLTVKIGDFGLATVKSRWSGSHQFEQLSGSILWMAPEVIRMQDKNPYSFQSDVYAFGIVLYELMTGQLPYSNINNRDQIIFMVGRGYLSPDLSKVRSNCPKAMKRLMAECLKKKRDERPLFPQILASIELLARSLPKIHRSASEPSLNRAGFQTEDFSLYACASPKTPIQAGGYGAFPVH
Put plainly: In vitro kinase assay (Z'-LYTE, Invitrogen). It counts as biochemical. The settings on record: compound at 100 nM, ATP Km apparent, read-out: % of inhibition of the kinase compared to the control. In outline: as §1

The target in another experiment is T6, KDR (VEGFR2) (Homo sapiens, UniProt P35968).
T6 construct: purchased Invitrogen
Put plainly: In vitro kinase assay (Z'-LYTE, Invitrogen). The class given is biochemical. To be noted: compound at 100 nM, ATP Km apparent, read-out: % of inhibition of the kinase compared to the control. In outline:
as §1

The next experiment addresses T7, EGFR (ErbB1) (Homo sapiens, UniProt P00533).
T7 construct: purchased Invitrogen
Put plainly: In vitro kinase assay (Z'-LYTE, Invitrogen). The class given is biochemical. To be noted: compound at 100 nM, ATP Km apparent, read-out: % of inhibition of the kinase compared to the control. In outline:
as §1

Another experiment relates to HT29 cell line. Put plainly: In vitro cell proliferation assay (MTT). The settings on record: Homo sapiens, HT-29, HT29, 72 hr, EC50 ≧ 1 μM, read-out: EC50, anti-proliferative activity. It counts as cell-based. An outline of the steps: (§2)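 Cells (5×10^3 per well for cancer lines, 1×10^4 for HRMEC) incubated in duplicate with 10 nM to 3 μM compound for 72 hr. Proliferation read by MTT; EC50 from sigmoidal fits normalised to DMSO (0%) and 1% SDS (100%) controls.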

For the next experiment, the system named is HepG2 cell line. Put plainly: In vitro cell proliferation assay (MTT). The class given is cell-based. The settings on record: Homo sapiens, HepG2, 72 hr, read-out: EC50, anti-proliferative activity. In outline:
as §2

The next experiment has as its system HUVEC cells. Put plainly: In vitro cell proliferation assay (MTT). It counts as cell-based. To be noted: Homo sapiens, 72 hr, read-out: EC50, anti-proliferative activity. In outline: as §2
In the next experiment the test system is HRMEC cells. Put plainly: In vitro cell proliferation assay (MTT). The class given is cell-based. The settings on record: 72 hr, read-out: EC50, anti-proliferative activity. In outline:
as §2

The test system of a further experiment is HuCCT1 cell line. Put plainly: In vitro cell proliferation assay (MTT). It counts as cell-based. To be noted: Homo sapiens, HuCCT-1, HuCCT1, 72 hr, EC50 ≧ 1 μM, read-out: EC50, anti-proliferative activity. In outline:
as §2

In another experiment the test system is A549 cell line. Put plainly: In vitro cell proliferation assay (MTT). It counts as cell-based. The settings on record: Homo sapiens, A549, 72 h, read-out: EC50, anti-proliferative activity. An outline of the steps:
as §2

Another experiment has as its system H1975 cell line. Put plainly: In vitro cell proliferation assay (MTT). It counts as cell-based. To be noted: Homo sapiens, NCI-H1975, H1975, 72 hr, EC50 ≧ 1 μM, read-out: EC50, anti-proliferative activity. In outline:
as §2

Another experiment concerns HeLa cell line. The experiment is described as follows: In vitro cell proliferation assay (MTT). The class given is cell-based. The settings on record: Homo sapiens, 72 hr, 100 nM < EC50 < 1 μM, read-out: EC50, anti-proliferative activity. In outline: as §2
The next experiment has as its system MDA-MB-231 cell line. Put plainly: In vitro cell proliferation assay (MTT). The class given is cell-based. The settings on record: Homo sapiens, MDA-MB-231, 72 hr, 100 nM < EC50 < 1 μM, read-out: EC50, anti-proliferative activity. In outline: as §2
The subject of the next experiment is HuH7 cell line. Put plainly: In vitro cell proliferation assay (MTT). The class given is cell-based. The settings on record: Homo sapiens, Huh-7, HuH7, 72 hr, 100 nM < EC50 < 1 μM, read-out: EC50, anti-proliferative activity. An outline of the steps: as §2
Another experiment concerns HuH6 Clone 5 cell line. Put plainly: In vitro cell proliferation assay (MTT). It counts as cell-based. The settings on record: HUH-6-clone5, HuH6 Clone 5, 72 hr, 100 nM < EC50 < 1 μM, read-out: EC50, anti-proliferative activity. An outline of the steps:
as §2

Read-outs that look alike come from different tables or passages of the source.

T2 sequence (P12931 whole entry): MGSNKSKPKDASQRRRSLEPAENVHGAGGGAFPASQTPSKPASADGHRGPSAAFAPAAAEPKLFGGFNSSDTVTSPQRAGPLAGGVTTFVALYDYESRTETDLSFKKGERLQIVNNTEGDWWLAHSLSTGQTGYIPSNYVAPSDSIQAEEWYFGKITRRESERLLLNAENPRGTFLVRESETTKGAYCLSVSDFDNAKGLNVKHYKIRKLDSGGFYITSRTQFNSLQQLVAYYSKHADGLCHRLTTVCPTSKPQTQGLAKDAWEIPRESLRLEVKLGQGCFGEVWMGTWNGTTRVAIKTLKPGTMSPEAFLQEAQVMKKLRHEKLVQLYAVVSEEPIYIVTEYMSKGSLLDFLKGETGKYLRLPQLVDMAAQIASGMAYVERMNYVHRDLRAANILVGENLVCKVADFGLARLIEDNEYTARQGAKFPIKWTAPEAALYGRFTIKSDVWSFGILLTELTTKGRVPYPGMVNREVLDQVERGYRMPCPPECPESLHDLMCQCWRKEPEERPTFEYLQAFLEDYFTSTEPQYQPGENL
T1 sequence (P21802 22-821): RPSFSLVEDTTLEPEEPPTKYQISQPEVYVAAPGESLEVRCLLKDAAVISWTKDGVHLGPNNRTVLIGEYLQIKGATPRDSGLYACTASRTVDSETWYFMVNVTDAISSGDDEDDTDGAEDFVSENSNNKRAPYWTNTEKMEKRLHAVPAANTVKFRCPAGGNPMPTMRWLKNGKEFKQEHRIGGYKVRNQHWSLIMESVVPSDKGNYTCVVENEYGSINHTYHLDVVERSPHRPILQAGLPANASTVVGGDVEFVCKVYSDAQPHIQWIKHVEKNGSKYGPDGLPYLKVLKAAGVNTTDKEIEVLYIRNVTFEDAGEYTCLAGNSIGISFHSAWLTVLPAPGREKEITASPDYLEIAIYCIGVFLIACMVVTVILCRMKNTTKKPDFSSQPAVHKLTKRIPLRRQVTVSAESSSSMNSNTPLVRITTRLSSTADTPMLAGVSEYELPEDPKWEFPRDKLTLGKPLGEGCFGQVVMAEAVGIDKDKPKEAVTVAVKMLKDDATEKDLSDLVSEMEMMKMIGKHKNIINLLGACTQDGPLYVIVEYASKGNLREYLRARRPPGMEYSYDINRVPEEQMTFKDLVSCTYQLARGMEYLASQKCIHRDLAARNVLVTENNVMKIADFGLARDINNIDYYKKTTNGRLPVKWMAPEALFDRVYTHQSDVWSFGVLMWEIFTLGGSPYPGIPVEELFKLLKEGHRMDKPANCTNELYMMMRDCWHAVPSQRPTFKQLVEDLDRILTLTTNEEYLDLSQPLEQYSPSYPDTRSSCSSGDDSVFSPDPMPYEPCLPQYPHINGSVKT
T7 sequence (P00533 25-1210): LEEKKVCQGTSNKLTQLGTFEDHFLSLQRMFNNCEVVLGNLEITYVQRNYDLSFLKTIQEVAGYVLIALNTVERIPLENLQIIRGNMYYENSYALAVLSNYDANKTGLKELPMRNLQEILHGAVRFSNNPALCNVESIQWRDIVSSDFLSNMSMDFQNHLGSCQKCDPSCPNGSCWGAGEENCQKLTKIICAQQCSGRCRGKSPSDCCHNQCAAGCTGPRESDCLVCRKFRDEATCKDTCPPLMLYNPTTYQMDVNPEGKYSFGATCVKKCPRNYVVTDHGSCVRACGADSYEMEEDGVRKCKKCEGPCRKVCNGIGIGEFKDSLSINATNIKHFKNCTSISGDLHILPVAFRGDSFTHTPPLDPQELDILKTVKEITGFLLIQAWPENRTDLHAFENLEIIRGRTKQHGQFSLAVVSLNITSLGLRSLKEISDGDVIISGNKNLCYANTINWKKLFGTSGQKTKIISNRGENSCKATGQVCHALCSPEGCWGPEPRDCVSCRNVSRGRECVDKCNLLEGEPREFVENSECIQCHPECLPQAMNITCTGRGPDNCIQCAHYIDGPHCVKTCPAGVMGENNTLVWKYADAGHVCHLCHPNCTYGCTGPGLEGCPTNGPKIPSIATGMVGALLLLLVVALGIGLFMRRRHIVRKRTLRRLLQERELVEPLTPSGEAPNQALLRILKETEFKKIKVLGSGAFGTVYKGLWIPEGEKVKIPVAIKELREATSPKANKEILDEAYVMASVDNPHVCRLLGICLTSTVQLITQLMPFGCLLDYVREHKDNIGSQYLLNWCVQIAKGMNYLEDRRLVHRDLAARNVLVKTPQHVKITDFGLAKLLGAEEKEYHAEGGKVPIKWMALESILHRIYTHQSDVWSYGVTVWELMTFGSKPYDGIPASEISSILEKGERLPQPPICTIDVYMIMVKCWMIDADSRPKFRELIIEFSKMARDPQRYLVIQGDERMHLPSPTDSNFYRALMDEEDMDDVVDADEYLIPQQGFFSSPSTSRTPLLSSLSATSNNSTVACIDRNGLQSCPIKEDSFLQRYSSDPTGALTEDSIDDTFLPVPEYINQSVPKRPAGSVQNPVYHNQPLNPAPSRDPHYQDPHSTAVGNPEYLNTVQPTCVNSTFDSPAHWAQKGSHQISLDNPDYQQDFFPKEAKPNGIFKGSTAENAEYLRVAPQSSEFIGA

For orientation: inhibition means the percentage by which the read-out fell short of the control. One may read the EC50 as the midpoint of the concentration-response curve. As to `COC(=O)c1cc2cc(CNc3cc(NC(=O)c4ccc(CN5CCN(C)CC5)cc4)ccc3C)cnc2[nH]1` [OR0746, 5-({2-Methyl-5-[4-(4-methyl-piperazin-1-ylmethyl)-benzoylamino]-phenylamino}-methyl)-1H-pyrrolo[2,3-b]pyridine-2-carboxylic acid methyl ester], the inhibition at 0.1 µM is less than 50% at FGFR2; less than 50% on SRC; not below 50% on PDGFRA (PDGFR alpha); less than 50% on EGFR (ErbB1) T790M L858R; less than 50% at BRAF; less than 50% at KDR (VEGFR2). In addition, the inhibition at 0.1 µM at EGFR (ErbB1) is not below 50%. Besides, the EC50 with HT29 cell line, with HepG2 cell line (EC50 ≧ 1 μM), in the experiment with HUVEC cells (EC50 ≧ 1 μM), in the experiment with HRMEC cells (EC50 ≧ 1 μM), with HuCCT1 cell line and with A549 cell line (EC50 ≧ 1 μM) was not below 1 µM throughout. Besides, in the experiment on H1975 cell line, the concentration giving a half-maximal response (EC50) was not below 1 µM.

Turning to `COC(=O)c1cc2cc(COc3cc(NC(=O)c4ccc(CN5CCN(C)CC5)cc4)ccc3C)cnc2[nH]1` [OR0779, 5-{2-Methyl-5-[4-(4-methyl-piperazin-1-ylmethyl)-benzoylamino]-phenoxymethyl}-1H-pyrrolo[2,3-b]pyridine-2-carboxylic acid methyl ester], the inhibition at 0.1 µM was less than 50% on FGFR2; not below 50% on SRC; not below 50% at PDGFRA (PDGFR alpha); less than 50% at EGFR (ErbB1) T790M L858R; less than 50% on BRAF; not below 50% at KDR (VEGFR2). Moreover, the inhibition at 0.1 µM on EGFR (ErbB1) was not below 50%. Further, the EC50 in the experiment with HT29 cell line, with HepG2 cell line (EC50 ≧ 1 μM), with HUVEC cells (EC50 ≧ 1 μM), with HRMEC cells (EC50 ≧ 1 μM), in the experiment with HuCCT1 cell line and in the experiment on A549 cell line (EC50 ≧ 1 μM) was not below 1 µM each time. Besides, in the experiment with H1975 cell line, the EC50 is not below 1 µM.

With `CC(=O)c1cc2cc(CCc3cc(NC(=O)c4ccc(CN5CCC(N(C)C)C5)c(C(F)(F)F)c4)ccc3C)cnc2[nH]1` (stereo not shown) [OR0798, N-{3-[2-(2-Acetyl-1H-pyrrolo[2,3-b]pyridin-5-yl)-ethyl]-4-methyl-phenyl}-4-(3-dimethylamino-pyrrolidin-1-ylmethyl)-3-trifluoromethyl-benzamide], the inhibition at 0.1 µM at FGFR2, on SRC, at PDGFRA (PDGFR alpha), on BRAF, at KDR (VEGFR2) and at EGFR (ErbB1) was not below 50% throughout. Besides, the EC50 in the experiment on HeLa cell line was 0.1 to 1 µM; with HepG2 cell line (100 nM < EC50 < 1 μM), 0.1 to 1 µM; with MDA-MB-231 cell line it was 0.1 to 1 µM; in the experiment on HUVEC cells (EC50 ≦ 100 nM) it was not above 0.1 µM; in the experiment on HRMEC cells (100 nM < EC50 < 1 μM), 0.1 to 1 µM; with HuH7 cell line, 0.1 to 1 µM. Also, the EC50 was not below 1 µM in the experiment with HuCCT1 cell line, 0.1 to 1 µM in the experiment on HuH6 Clone 5 cell line and not above 0.1 µM with A549 cell line (EC50 ≦ 100 nM).

For the molecule `CC(=O)c1cc2cc(CCc3cc(NC(=O)c4ccc(CN5CC[C@H](N(C)C)C5)c(C(F)(F)F)c4)ccc3C)cnc2[nH]1` [OR0812, N-{3-[2-(2-Acetyl-1H-pyrrolo[2,3-b]pyridin-5-yl)-ethyl]-4-methyl-phenyl}-4-((S)-3-dimethylamino-pyrrolidin-1-ylmethyl)-3-trifluoromethyl-benzamide], the inhibition at 0.1 µM at FGFR2, on SRC, on PDGFRA (PDGFR alpha), at BRAF, on KDR (VEGFR2) and on EGFR (ErbB1) was not below 50% throughout. Further, the EC50 with HeLa cell line is 0.1 to 1 µM; in the experiment with HT29 cell line it was not below 1 µM; in the experiment on HepG2 cell line (100 nM < EC50 < 1 μM), 0.1 to 1 µM; in the experiment on MDA-MB-231 cell line it was 0.1 to 1 µM; in the experiment with HUVEC cells (100 nM < EC50 < 1 μM), 0.1 to 1 µM; with HRMEC cells (100 nM < EC50 < 1 μM) it was 0.1 to 1 µM. The EC50 in the experiment with HuH7 cell line is 0.1 to 1 µM; in the experiment on A549 cell line (EC50 ≦ 100 nM) it was not above 0.1 µM; in the experiment with H1975 cell line, not below 1 µM.
